Results on three molecules are retold here after patent US12723074B2, “Medicament for treatment and/or prevention of cancer” (TORAY INDUSTRIES, INC., priority 2020, dated 2026).

Test [1] deals with Human breast cancer cells BT474. The test can be described thus: Antitumor effect in human breast cancer BT474-bearing NOG mice (combination with axitinib). The test is classed as in vivo. The conditions noted are these: day 63 after cancer bearing. As for the experimental part:
Likewise, in vivo antitumor effect in cancer-bearing mouse was evaluated by administering a combination of the anti-CAPRIN-1 antibody (anti-CAPRIN-1 humanized antibody #1) produced in Example 1, and an anti-vascular endothelial growth factor receptor (VEGFR) inhibitor.
Specifically, the antitumor effect of the combination of the anti-CAPRIN-1 antibody and axitinib according to the present invention was studied using NOG mice in which human-derived cancer cells expressing CAPRIN-1 protein were subcutaneously transplanted. Human breast cancer cells BT474 were subcutaneously transplanted at 2×10^7 cells per mouse as a mixture with Matrigel and allowed to grow until a tumor became approximately 100 mm^3 to prepare cancer-bearing mice. Each anti-CAPRIN-1 antibody produced in Example 1 was administered at 10 mg/kg once a week to the tail veins of five cancer-bearing mice described above. To these mice, administration of axitinib was started simultaneously with the initial administration of the anti-CAPRIN-1 antibody, and the administration was performed at 5 or 25 mg/kg twice a day for 9 days and then once a day for 15 days.
For a comparative control group, the same dose of the same anti-CAPRIN-1 antibody as above was administered once a week to cancer-bearing mice. For another comparative control group, axitinib was administered at the same administration intervals and dose as above to other individuals of cancer-bearing mice. Cancer-bearing mice in a non-treatment group were used as negative controls. After the start of administration, the sizes of cancers in the cancer-bearing mice were measured over time using calipers. Tumor volumes were calculated according to a standard method using a calculation expression: (Length of the major axis of the tumor)×(Length of the minor axis of the tumor)^2×0.5.

For test [2], the system named is gastroesophageal junction cancer or gastric adenocarcinoma. The conditions noted are these: RAINBOW trial patients; cited from earlier work.
Test [3] addresses T1, CAPRIN-1 on the cell membrane surface of mouse kidney cancer cells (Renca) and mouse breast cancer cells (4T1) (Mus musculus, UniProt Q60865).
T1 construct: endogenous in cells; host or cells: Renca, 4T1
T1 sequence (Q60865 1-707): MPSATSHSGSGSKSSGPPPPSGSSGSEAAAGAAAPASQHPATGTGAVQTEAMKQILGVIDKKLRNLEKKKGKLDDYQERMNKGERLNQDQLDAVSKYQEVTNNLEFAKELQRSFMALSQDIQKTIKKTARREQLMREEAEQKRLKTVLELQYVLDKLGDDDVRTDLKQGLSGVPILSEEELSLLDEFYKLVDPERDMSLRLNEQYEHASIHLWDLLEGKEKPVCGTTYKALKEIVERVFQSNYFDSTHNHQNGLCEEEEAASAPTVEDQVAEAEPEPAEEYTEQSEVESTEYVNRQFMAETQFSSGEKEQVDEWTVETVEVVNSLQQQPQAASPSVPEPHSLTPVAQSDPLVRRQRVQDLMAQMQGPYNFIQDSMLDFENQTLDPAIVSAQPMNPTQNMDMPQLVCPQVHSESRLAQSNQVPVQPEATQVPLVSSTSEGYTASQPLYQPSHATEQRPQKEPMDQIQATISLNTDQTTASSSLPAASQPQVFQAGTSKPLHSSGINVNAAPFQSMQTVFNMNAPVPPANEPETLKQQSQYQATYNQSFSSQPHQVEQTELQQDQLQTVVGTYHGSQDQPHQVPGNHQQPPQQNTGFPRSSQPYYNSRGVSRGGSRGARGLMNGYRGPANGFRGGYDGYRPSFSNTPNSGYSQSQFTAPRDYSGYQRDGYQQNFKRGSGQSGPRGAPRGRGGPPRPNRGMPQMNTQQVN
Kind of test: Flow cytometry reactivity with cell membrane surface of mouse cancer cells expressing CAPRIN-1. Type of test: binding. The conditions noted are these: mouse cancer cells Renca and 4T1. The source says:
(§1) The reactivity of the anti-CAPRIN-1 antibody with cancer cells without permeation treatment of cell membrane was examined by flow cytometry to confirm that a portion of CAPRIN-1 was expressed on the cell membrane surface of cancer cells as shown in Examples given below.
In general terms: A flow cytometer gives signals particle by particle.

In test [4] the test system is Human breast cancer cells BT474. Kind of test: Antitumor effect in human breast cancer BT474-bearing NOD-SCID mice (combination with bevacizumab). Type of test: in vivo. The conditions noted are these: day 41 after cancer bearing, antibody 10 mg/kg once a week, bevacizumab 1.25 mg/kg once a week.
Description: Human breast cancer cells BT474 were subcutaneously transplanted at 2×10^7 cells per mouse as a mixture with Matrigel (Sigma) and allowed to grow until a tumor became approximately 100 mm^3 to prepare cancer-bearing mice.
For a comparative control group, the same dose of the same anti-CAPRIN-1 antibody as above was administered once a week to cancer-bearing mice. […] Cancer-bearing mice in a non-treatment group were used as negative controls. After the start of administration, the sizes of cancers in the cancer-bearing mice were measured over time using calipers. Tumor volumes were calculated according to a standard method using a calculation expression: (Length of the major axis of the tumor)×(Length of the minor axis of the tumor)^2×0.5.
Test [5] has as its target T2, CAPRIN-1 on the cell membrane surface of human cancer cells (Homo sapiens, UniProt Q14444).
T2 construct: endogenous in cells; host or cells: BT-474, HT-29, QG56, H1650, NCI-N87, HEC-1-A, 22Rv1, Panc10.5, Hep3B, SKOV3, Caki-2, U-87MG, T24, OE33, OCI-AIM5, Ramos, TGBC14TKB, HT-1080, G-361
T2 sequence (Q14444 1-709): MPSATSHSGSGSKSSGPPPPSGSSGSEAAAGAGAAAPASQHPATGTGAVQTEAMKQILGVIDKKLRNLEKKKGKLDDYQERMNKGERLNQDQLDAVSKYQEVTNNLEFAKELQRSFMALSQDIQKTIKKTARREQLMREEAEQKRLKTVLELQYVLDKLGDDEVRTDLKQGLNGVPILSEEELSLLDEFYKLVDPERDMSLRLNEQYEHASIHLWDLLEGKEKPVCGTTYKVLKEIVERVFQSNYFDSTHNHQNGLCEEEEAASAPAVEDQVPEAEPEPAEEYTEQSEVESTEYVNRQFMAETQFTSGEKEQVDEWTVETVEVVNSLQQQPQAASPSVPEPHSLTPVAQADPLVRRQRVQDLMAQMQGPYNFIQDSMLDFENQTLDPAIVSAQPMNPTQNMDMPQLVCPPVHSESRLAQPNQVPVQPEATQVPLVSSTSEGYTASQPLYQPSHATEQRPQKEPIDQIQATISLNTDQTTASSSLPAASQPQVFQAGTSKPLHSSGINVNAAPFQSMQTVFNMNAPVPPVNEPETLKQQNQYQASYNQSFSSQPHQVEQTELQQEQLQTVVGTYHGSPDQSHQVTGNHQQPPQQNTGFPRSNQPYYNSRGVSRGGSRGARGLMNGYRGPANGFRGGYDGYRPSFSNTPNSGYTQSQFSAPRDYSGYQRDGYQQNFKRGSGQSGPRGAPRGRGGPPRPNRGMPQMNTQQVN
Kind of test: Flow cytometry reactivity with cell membrane surface of human cancer cells expressing CAPRIN-1. Type of test: binding. The conditions noted are these: human cancer cells BT-474, HT-29, QG56, H1650, NCI-N87, HEC-1-A, 22Rv1, Panc10.5, Hep3B, SKOV3, Caki-2, U-87MG, T24, OE33, OCI-AIM5, Ramos, TGBC14TKB, HT-1080, G-361.
Source text: Reactivity of each monoclonal antibody with human cancer cells confirmed to express CAPRIN-1 protein on the cell membrane surface was further confirmed by flow cytometry.
as §1

Take `CNC(=O)c1ccccc1Sc1ccc2c(/C=C/c3ccccn3)n[nH]c2c1` [axitinib]: the “tumor volume when the tumor volume of the negative control was defined as 100%” value in test [1] (axitinib 5 mg/kg (alone or with antibody 10 mg/kg once a week)) was 39%; in test [1] (axitinib 25 mg/kg (alone or with antibody 10 mg/kg once a week)) it was 27%.

`CC(=O)O[C@H]1C(=O)[C@@]2(C)[C@H]([C@H](OC(=O)c3ccccc3)[C@]3(O)C[C@H](OC(=O)[C@H](O)[C@@H](NC(=O)c4ccccc4)c4ccccc4)C(C)=C1C3(C)C)[C@]1(OC(C)=O)CO[C@@H]1C[C@@H]2O` [paclitaxel]: in test [2], the median overall survival is 7.4 months and the median progression-free survival is given as 2.9 months.

B1: anti-CAPRIN-1 humanized antibody #1: humanized IgG1 antibody with CDRs of the mouse anti-CAPRIN-1 monoclonal antibody (heavy chain SEQ ID NO: 114, light chain SEQ ID NO: 115) (antibody, listed as Mus musculus)
heavy: GPELVKPGASVKMSCKASGYTFTSYVMHWVKQKPGQGLEWIGYINPYNDGTKYNEKFKGKATLTSDKSSSTAYMELSSLTSEDSAVYYCARRYYYGSSGGYFDVWAQDHVRT
light: DVQITQSPSYLAASPGETITINCRASKSISKYLAWYQEKPGKTNKLLIYSGSTLQSGIPSRFSGSGSGTDFTLTISSLEPEDFAMYYCQQHNEYPYTFGGGTKLEIKR
On to B1, for which the entries for the “tumor volume when the tumor volume of the negative control was defined as 100%” value in test [1] (antibody alone 10 mg/kg once a week) and in test [4] were 40% and 52%, respectively. Further, the “reactivity with the cell membrane surface of cancer cells (fluorescence intensity vs IgG control)” value in test [3] and in test [5] was “reacted strongly” throughout.
